The text below walks through data of patent US8765693B2, “Method of inhibiting premature aging of human skin caused by exposure to infrared radiation” (L'Oreal, priority 2012, dated 2014).

For the experiment, the system named is IRA induced MMP-1. In words: IRA-induced MMP-1 mRNA expression in primary human dermal fibroblasts. The experiment is classed as cell-based. Conditions: for Effects in IRA treated cells: inhibition (MMP-1 mRNA): 24 hrs pre-incubation, 360 J/cm^2 Infrared A, harvested 24 hrs after irradiation; for Effect on IRA induced MMP-1 in vitro (in words): primary human dermal fibroblasts. The protocol:
Primary Human Dermal Fibroblasts
Hydrosun 500H IRA device (Hydrosun Medizintechnik GmbH, Müllheim, Germany). The IRA device was water-filtered and equipped with a black filter and emits wavelengths between 760 and 1400 nm leading to an irradiance of 360 mW/cm^2.
Baicalin: stock 44.8 mM in DMSO, and diluted to 10 μM, 25 μM
Phloretin: stock 50 mM in DMSO, and diluted to 1 μM, 5 μM, and 10 μM as final treatment conditions.
Neohesperidin dihydrochalcone: stock 710 mM in DMSO, and diluted to 100 μM, 500 μM, and 1 mM as final treatment conditions.
Cells were incubated for 24 hrs after irradiation, and then harvested to have MMP-1 mRNA analyzed.

As for `O=C(O)[C@H]1O[C@@H](Oc2cc3oc(-c4ccccc4)cc(=O)c3c(O)c2O)[C@H](O)[C@@H](O)[C@@H]1O` [Baicalin], the “Effect on IRA induced MMP-1 in vitro (in words)” value (“Effect … (in words)” for short) is “reduced IRA induced MMP-1”. In addition, the “Effects in IRA treated cells: inhibition (MMP-1 mRNA)” value (“Effects … inhibition (MMP-1 mRNA)” for short) (10 μM) was 26% inhibition with 10 μM. Further, the “Effects … inhibition (MMP-1 mRNA)” value (25 μM (0.001%)) is reported as 100% inhibition with 25 μM+ (0.001%).

For `COc1ccc(CCC(=O)c2c(O)cc(O[C@@H]3O[C@H](CO)[C@@H](O)[C@H](O)[C@H]3O[C@@H]3O[C@@H](C)[C@H](O)[C@@H](O)[C@H]3O)cc2O)cc1O` [Neohesperidin dihydrochalcone], the “Effect … (in words)” value is listed as “reduced IRA induced MMP-1”. In addition, for the setting “100 μM (0.006%)”, the “Effects … inhibition (MMP-1 mRNA)” value is 100% inhibition with 100 μM+ (0.006%). Besides, under “500 μM (0.03%)”, the “Effects … inhibition (MMP-1 mRNA)” value was 100% inhibition with 500 μM+ (0.03%). Further, the “Effects … inhibition (MMP-1 mRNA)” value (1 mM (0.06%)) is 100% inhibition with 1 mM+ (0.06%).

In the case of `O=C(CCc1ccc(O)cc1)c1c(O)cc(O)cc1O` [Phloretin], the “Effect … (in words)” value is “reduced IRA induced MMP-1”. In addition, where the note is “1 μM (0.00002%)”, the “Effects … inhibition (MMP-1 mRNA)” value is listed as 22% inhibition with 1 μM+ (0.00002%). Besides, under “5 μM (0.00014%)”, the “Effects … inhibition (MMP-1 mRNA)” value is reported as 78% inhibition with 5 μM+ (0.00014%). Moreover, where the note is “10 μM”, the “Effects … inhibition (MMP-1 mRNA)” value was 68% inhibition with 10 μM+ (0.0028%).
